The source of these data is PubChem BioAssay (NCI).

Each structure is given as a SMILES string. Several values for one entry are separate records, joined by “and”; a condition that tells them apart may be missing. Identical values can stand only once.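 Assay format: 96-well plates, 48-hour exposure. At the GI50, growth is halved. Definition used: TGI = concentration required for complete inhibition of growth.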 Some results are limits rather than exact numbers.

Some test systems named below: SK-MEL-5 melanoma; MDA-MB-231 breast; HOP-92 NSCLC; CCRF-CEM leukemia; RPMI-8226 leukemia; CAKI-1 renal; HT29 colon; COLO 205 colon; UO-31 renal; SNB-75 CNS.
Test in all cases: NCI tumour cell line growth inhibition, 48 h

Turning to `COc1cc(C#CC(=O)OC/C=C/c2ccc3c(c2)OCO3)cc(OC)c1OC`, the TGI in the assay with SK-MEL-5 melanoma amounted to 32.8 µM; in the assay with MDA-MB-231 breast it was 79.4 µM; in the assay on HOP-92 NSCLC, 54.5 µM; with CCRF-CEM leukemia, 49.3 µM; in the assay with RPMI-8226 leukemia, 51.8 µM; with CAKI-1 renal, 57 µM. Also, the TGI was greater than 100 µM in the assay on HT29 colon, 35.7 µM with COLO 205 colon and 37 µM with UO-31 renal.

Consider `[Cl][Hg][c]1cc(Br)cc(Br)c1`, for which the GI50 was 1.54 µM in the assay with SK-MEL-5 melanoma; 1.79 µM in the assay on MDA-MB-231 breast; 1.7 µM with HOP-92 NSCLC; 1.32 µM in the assay with CCRF-CEM leukemia; 1.81 µM in the assay with RPMI-8226 leukemia; 1.24 µM with SNB-75 CNS. The GI50 in the assay with HT29 colon was 2.62 µM; in the assay with COLO 205 colon, 2.14 µM; in the assay on UO-31 renal, 4.64 µM. Besides, the TGI with SK-MEL-5 melanoma came to 3.04 µM; in the assay with MDA-MB-231 breast, 3.89 µM; in the assay on HOP-92 NSCLC, 3.45 µM; with CCRF-CEM leukemia it was 4.22 µM; with RPMI-8226 leukemia it was 4.86 µM; in the assay with SNB-75 CNS, 3.43 µM. In addition, the TGI stood at 10.6 µM in the assay on HT29 colon, 4.97 µM with COLO 205 colon and 15.5 µM with UO-31 renal.

As to `CCCCC(C(=O)C(=O)NC1C2CC3CC(C2)CC1C3)C(=O)C(C)C` (stereo not drawn), the TGI in the assay on SK-MEL-5 melanoma, in the assay on HOP-92 NSCLC, with CCRF-CEM leukemia, in the assay on RPMI-8226 leukemia, in the assay on SNB-75 CNS and with CAKI-1 renal was greater than 100 µM throughout. The TGI with HT29 colon, in the assay on COLO 205 colon and in the assay on UO-31 renal was greater than 100 µM throughout.

On to `Cc1nc2c(-c3cnc(N)nc3)nc(N3CCOCC3)nc2n1C(C)C`, for which the TGI is 0.9 µM and 0.652 µM in the assay with SK-MEL-5 melanoma; > 4.14 µM and 27.1 µM in the assay with MDA-MB-231 breast; > 3 µM and 10.9 µM with RPMI-8226 leukemia; 0.334 µM and 0.272 µM with SNB-75 CNS; 1.42 µM and 2.94 µM with CAKI-1 renal; 1.1 µM and 3.68 µM with COLO 205 colon. In addition, the TGI in the assay with UO-31 renal is 0.452 µM and 0.401 µM. Moreover, the GI50 in the assay on RPMI-8226 leukemia was 0.179 µM and 0.123 µM.

With `COc1ccc(/C=C(/C(=O)N2CCN(c3ccccc3)CC2)c2cc(OC)c(OC)c(OC)c2)cc1O`, the GI50 was 0.361 µM with SK-MEL-5 melanoma; 0.378 µM in the assay with MDA-MB-231 breast; 22 µM in the assay with HOP-92 NSCLC; 0.355 µM in the assay with CCRF-CEM leukemia; 0.374 µM with RPMI-8226 leukemia; 0.293 µM with SNB-75 CNS. Further, the GI50 in the assay on HT29 colon is 5 µM; in the assay with COLO 205 colon, 3.89 µM. The TGI in the assay on SK-MEL-5 melanoma is 11.8 µM; with MDA-MB-231 breast, 50.9 µM; in the assay on HOP-92 NSCLC, greater than 100 µM; in the assay on CCRF-CEM leukemia, greater than 100 µM; with RPMI-8226 leukemia, 21.4 µM; with SNB-75 CNS, greater than 100 µM. Moreover, the TGI amounted to 38.5 µM in the assay on HT29 colon, 22.1 µM in the assay with COLO 205 colon and 90.8 µM in the assay with UO-31 renal.

On to `Cc1cc(CC(O)c2ccc(Cl)c(Cl)c2)nc(=O)[nH]1` (stereo not drawn), for which the TGI with SK-MEL-5 melanoma was greater than 100 µM; with HOP-92 NSCLC it was 49.5 µM; in the assay on CCRF-CEM leukemia it was greater than 100 µM; in the assay on RPMI-8226 leukemia, greater than 100 µM; in the assay on SNB-75 CNS, 48.8 µM; in the assay on CAKI-1 renal it was 90 µM. Moreover, the TGI with HT29 colon was greater than 100 µM; with COLO 205 colon, 85.2 µM; in the assay with UO-31 renal, greater than 100 µM.

In the case of `NC(=Nc1c([N+](=O)[O-])cnc2ccccc12)N1CCOCC1`, the TGI in the assay on SK-MEL-5 melanoma, in the assay with MDA-MB-231 breast, in the assay with CCRF-CEM leukemia, in the assay with RPMI-8226 leukemia, in the assay on SNB-75 CNS and in the assay with CAKI-1 renal was greater than 100 µM in each case. Further, the TGI in the assay with HT29 colon, in the assay with COLO 205 colon and with UO-31 renal was greater than 100 µM each time.

On to `C=C1C(=O)O[C@@H]2C[C@@H]1CC/C(C)=C/CC/C(C)=C/CC[C@@]2(C)O`, for which the GI50 with SK-MEL-5 melanoma was 16.2 µM; in the assay on MDA-MB-231 breast, 8.56 µM; with HOP-92 NSCLC, 3.96 µM; with RPMI-8226 leukemia, 2.09 µM; in the assay with SNB-75 CNS, 26.4 µM; in the assay on CAKI-1 renal, 10.7 µM. The GI50 in the assay on HT29 colon is 31 µM; with COLO 205 colon it was 34.1 µM; in the assay on UO-31 renal, 16.3 µM. Besides, the TGI in the assay with SK-MEL-5 melanoma came out at 36.4 µM; in the assay on MDA-MB-231 breast it was 31.8 µM; with HOP-92 NSCLC, 19.8 µM; in the assay on RPMI-8226 leukemia, 5.09 µM; with SNB-75 CNS it was 47.4 µM; in the assay on CAKI-1 renal, 23.7 µM. The TGI was greater than 100 µM in the assay with HT29 colon, 99.2 µM with COLO 205 colon and 33.4 µM in the assay with UO-31 renal.

Turning to `Cc1ccc(S(=O)(=O)N(CC(=O)O)c2ccccc2)cc1`, the TGI with SK-MEL-5 melanoma, in the assay with HOP-92 NSCLC, in the assay on CCRF-CEM leukemia, in the assay with RPMI-8226 leukemia, in the assay on SNB-75 CNS and with CAKI-1 renal was greater than 100 µM throughout. Besides, the TGI in the assay with HT29 colon, with COLO 205 colon and in the assay on UO-31 renal was greater than 100 µM each time.

For the molecule `CC(C)c1ccc2c(c1)CC[C@@H]1[C@@](C)(C(=O)O)CCC[C@]21C`, the GI50 was 5.02 µM in the assay with SK-MEL-5 melanoma; 1.31 µM in the assay with MDA-MB-231 breast; 20.7 µM in the assay on HOP-92 NSCLC; 2.47 µM with RPMI-8226 leukemia; 2.93 µM with CAKI-1 renal; 3.23 µM in the assay on COLO 205 colon. In the assay with UO-31 renal, the GI50 was 2.76 µM. The TGI in the assay with SK-MEL-5 melanoma is 16.5 µM; with MDA-MB-231 breast, 6.04 µM; with HOP-92 NSCLC, 76.8 µM; in the assay on RPMI-8226 leukemia, 6.19 µM; in the assay with CAKI-1 renal, 12 µM; in the assay on COLO 205 colon, 7.83 µM. This molecule returned a TGI in the assay with UO-31 renal of 12 µM.

For the molecule `Cc1ccc(C)c(C2=C(c3cn(C)c4ccccc34)C(=O)NC2=O)c1`, the GI50 in the assay with SK-MEL-5 melanoma is greater than 25 µM; in the assay on MDA-MB-231 breast, greater than 25 µM; in the assay with CCRF-CEM leukemia, 5.42 µM; in the assay with RPMI-8226 leukemia, greater than 22 µM; in the assay with SNB-75 CNS it was 1.15 µM; in the assay on CAKI-1 renal, greater than 23.4 µM. The GI50 is greater than 16 µM in the assay with HT29 colon, 7.36 µM in the assay on COLO 205 colon and 13.4 µM with UO-31 renal. The TGI in the assay with SK-MEL-5 melanoma, in the assay with MDA-MB-231 breast, in the assay on CCRF-CEM leukemia, in the assay on RPMI-8226 leukemia, in the assay with SNB-75 CNS and in the assay with CAKI-1 renal was greater than 25 µM each time. For the same molecule, the TGI in the assay on HT29 colon, in the assay on COLO 205 colon and with UO-31 renal was greater than 25 µM each time.
